Legend:
VCAM-1 = VCAM-1 Assay: TNF-stimulated cells, cell-surface ELISA; type: cell-based; details: for IC50: bare number = IC50, NE not defined in the patent, read-out: VCAM-1 IC50 or % inhibition at [μM]: IC50
Experimental: Two to four confluent P150 plates are trypsinized and the cells transferred to a 50 mL conical centrifuge tube. The cells are pelleted, resuspended, and counted using the trypan blue exclusion method.
Cells are resuspended at a concentration of 36,000 cells/mL and 1 mL is aliquoted per well.
Cells are split into 24 well tissue culture plates. The cells in each well should be approximately 90-95% confluent by the following day. Cells should not be older than passage 8.
Compounds are initially screened at 50 μM and 10 μM. A 50 mM stock solution for each compound is prepared in culture medium. The stock solution is diluted to 5 mM and 1 mM. When 10 μL of the 5 mM solution is added to the well (1 mL medium/well), the final concentration will be 50 μM. Adding 10 μL of the 1 mM solution to the well will give a final concentration of 10 μM.
Compounds which will not go into solution in culture medium are resuspended in DMSO at a concentration of 25 mM. The stock solution is then diluted to the final concentration in culture medium. The old medium is aspirated and 1 mL of the new medium with the compound is added. For example, if the final concentration is 50 μM, the 2 μL of the 25 mM stock is added per mL of culture medium. The […] solution is diluted for lower concentrations.
The compounds are added to the plate (each compound is done in duplicate). One plate is done for VCAM expression and one plate is done for ICAM expression.
Immediately after the compounds are added, TNF is added to each well. 100 units/mL TNF is usually added to each well. Since each lot of TNF varies in the number of units, each new lot is titrated to determine the optimum concentration. Therefore this concentration will change. If 100 units/mL is bing used, dilute the TNF to 10 units/μL and add 10 μL to each well.
The plates are incubated at 37° C., 5% CO2 overnight (approximately 16 hours). The next day the plates are checked under the microscope to see if there are any visual signs of toxicity. Records are made of any cell death, debris, or morphology changes, as well as insoluble compounds (particulate or turbity).
In order to assess MCP-1, the media (500 μL) is saved and frozen at −70° C. Wash cells once with roughly 1 ml/well of Hanks Balance Salt Solution (HBSS) or PBS. Gently empty the wash solution and then tap the plate onto paper towels. Add either 250 μL/well of HBSS +5% FCCS to the plank (no primary antibody wells) or 250 μL/well of primary antibody diluted in HBSS +5% FCS. Incubate for 30 minutes at 37° C. Wash the wells twice with 0.5 mL/well HBSS or PBS and gently tap the plates onto paper towels after the last wash. Add 250 μL/well of HRP-conjugated second antibody diluted in HBSS +5% FCS to every well including the blank wells (no primary antibody). Incubate at 37° C. for 30 minutes. Wash the wells four times with 0.5 mL/well HBSS or PBS and gently tap the plates onto paper towels after the last wash. Add 250 μL/well of substrate solution. Incubate at room temperature in the dark until there is adequate color development (blue). Note the length of time incubation was performed (typically 15-30 minutes). Add 75 μL/well stopper solution (8N sulfuric acid), and read A450 nm.

ApoB/HepG2 = experiment: Lipid Screen & IC50 Determination Protocol: ApoB ELISA of HEPG2 media; type: cell-based, human; details: HEPG2, 24 hours; for IC50: bare number = IC50, NE not defined in the patent, read-out: ApoB/HepG2 IC50 or % inhibition at [μM]: IC50; for ApoB/HepG2 % inhibition at [μM]: at 15 μM
Experimental: HEPG2 cell was started in 10 ml of MEM, 10% FBS, 1 mM Sodium Pyruvate. The cells were incubated in a tissue culture incubator. The cells were split into 4×96-wells plate in MEM, 10% FBS, 1 mM Sodium Pyruvate and allowed to grow to about 50% confluency and then removed.
The cells were treated with the desired concentration of compounds in 100 μl DMEM, 1% RSA for 24 hours. The compounds are dissolved in DMSO.
On the same day, 4×96-wells NuncImmunoSorb plate is coated with 100 μl of mouse anti-human ApoB monoclonal 1D1 (1:1000 dilution in 1×PBS, pH 7.4). The coating is allowed overnight.
The coated plate is washed 3 times with 1×PBS, pH 7.4, −0.05% Tween 20. 100 μl of the standards is added to the selected wells. ApoB standards are prepared at 6.25, 3.12, 1.56, 0.78, 0.39 ng, and each concentration is done in triplicates. For samples:
90 μl of 1×PBS, pH 7.4, −0.05% Tween 20 is added to each well corresponding to the sample. 10 μl of media is transferred from the treated HEPG2 plates to the ApoB ELISA plate. The plate is incubated at room temperature for 2 hours, rocking gently.
Wash the coated plate 3× with 1×PBS, pH 7.4, −0.05% Tween 20. Add 100 μl of sheep anti-human ApoB polyclonal from Boehringer Mannheim. (1:2000 dilution in 1×PBS, pH 7.4, −0.05% Tween 20) from Boehringer Mannheim. Incubate at room temperature for 1 hour, rocking gently. Wash the coated plate 3× with 1×PBS, pH 7.4, −0.05% Tween 20. Add 100 μl of rabbit anti-sheep IgG (1:2000 dilution in 1×PBS, pH 7.4, −0.05% Tween 20). Incubate at room temperature for 1 hour, rocking gently. Wash the coated plate 3× with 1×PBS, pH 7.4, −0.05% Tween 20. Add 100 μl of substrate (10 ml of distilled water, 100 μl of TMB (10 mg/ml), and 1 μl of hydrogen peroxide). Allow color to emerge and stop reaction with 25 ul of 8N sulfuric acid. Wells are read with MicroPlate Reader @ […]. Graph accumulation of ApoB in media as a percentage of control for each sample and their concentration. A determination of IC50 is obtained from the graph.
The degree of inhibition of the compounds of formulas (I) and (II) was determined by the assays described in Examples 62-64.

Q: How did the IC50 (VCAM-1) turn out when `CN(C)S(=O)(=O)c1ccc(CSc2cc(C(C)(C)C)c(O)c(C(C)(C)C)c2)cc1` [2,6-di-tert-butyl-4-thio(4′-methyl-N,N-dimethylbenzenesulfonamide)phenol] was run?
A: 20 µM

Q: What about the IC50 (ApoB/HepG2) of the same compound?
A: 31 µM

Q: Which IC50 (VCAM-1) does the source give for `Cc1ccc(CSc2cc(C(C)(C)C)c(O)c(C(C)(C)C)c2)cc1` [2,6-di-tert-butyl-4-thio(4′-methylbenzyl)phenol] here?
A: 75 µM

Q: And the IC50 (ApoB/HepG2)?
A: 22 µM

Q: What does the source list for `CN(C)Cc1ccc(CSc2cc(C(C)(C)C)c(O)c(C(C)(C)C)c2)o1` [2,6-di-tert-butyl-4-thio(5′-methyl-2′-((dimethylamino)methyl)furan)phenol]?
A: IC50 (VCAM-1): 10 µM; IC50 (ApoB/HepG2): 19 µM

Q: With `CC(C)(C)c1cc(SCc2ccc(C(F)(F)F)cc2)cc(C(C)(C)C)c1O` [(2,6-di-tert-butyl4-thio(4′-(trifluoromethyl)benzyl)phenol] as the compound, how does the IC50 (VCAM-1) read?
A: 5 µM

Q: What about the IC50 (ApoB/HepG2) of the same compound?
A: 16 µM

Q: Which results are given for `CC(C)(Sc1cc(C(C)(C)C)c(O)c(C(C)(C)C)c1)Sc1cc(C(C)(C)C)c(OC(=O)CCC(=O)O)c(C(C)(C)C)c1` [Butanedioic acid, mono [4-[[1-[[3,5-bis(1,1-dimethylethyl)-4-hydroxyphenyl]thio]-1-methylethyl]thio]2,6-bis(1,1-dimethylethyl)phenyl]ester]?
A: IC50 (VCAM-1): 5.6 µM; ApoB/HepG2 % inhibition at [μM] (ApoB/HepG2): 65% at 15

Q: For `CC(C)(Sc1cc(C(C)(C)C)c(O)c(C(C)(C)C)c1)Sc1cc(C(C)(C)C)c(OC(=O)CCCC(=O)O)c(C(C)(C)C)c1` [Pentanedioic acid, mono[4-[[1-[[3,5-bis(1,1-dimethylethyl)-4-hydroxyphenyl]thio]-1-methylethyl]thio]-2,6-bis(1,1-dimethylethyl)phenyl] ester], which IC50 (VCAM-1) is on record?
A: 8.7 µM

Q: What about the “ApoB/HepG2 % inhibition at [μM]” value (ApoB/HepG2) of the same compound?
A: 70% at 15

Q: What does the source list for `CC(C)(Sc1cc(C(C)(C)C)c(O)c(C(C)(C)C)c1)Sc1cc(C(C)(C)C)c(OCc2ccc([N+](=O)[O-])cc2)c(C(C)(C)C)c1` [Phenol, 4-[[1-[3,5-bis(1,1-dimethylethyl)-4-[(4-nitrophenyl)methoxy]phenyl]thio]-1-methylethyl]thio]2,6-bis(1,1-dimethylethyl)-]?
A: VCAM-1 % inhibition at [μM] (VCAM-1; at 50 μM): 30% at 50; ApoB/HepG2 % inhibition at [μM] (ApoB/HepG2): 17% at 15

Reference: US6602914B2, “Compounds and methods for the inhibition of the expression of VCAM-1” (AtheroGenics, Inc., priority 1997, dated 2003)
